Measured values published in ChEMBL document CHEMBL4828721, “Substituted dienes prepared from betulinic acid - Synthesis, cytotoxicity, mechanism of action, and pharmacological parameters” (Eur J Med Chem, 2021).

Legend:
CCRF-CEM = assay: Cytotoxicity against human CCRF-CEM cells assessed as reduction in cell viability measured after 72 hrs by MTS assay; assay type: functional, cell-based
BJ = assay: Cytotoxicity against human BJ cells assessed as reduction in cell viability measured after 72 hrs by MTS assay; assay type: cell-based
[1] = Cytotoxicity against human HCT116 p53-null cells assessed as reduction in cell viability measured after 72 hrs by MTS assay; assay type: functional, cell-based
K562 = assay: Cytotoxicity against human K562 cells assessed as reduction in cell viability measured after 72 hrs by MTS assay; assay type: functional, cell-based; details: K562, 72 h
[2] = Cytotoxicity against paclitaxel resistant human K562-Tax cells assessed as reduction in cell viability measured after 72 hrs by MTS assay; assay type: functional, cell-based
HCT-116 = assay: Cytotoxicity against human HCT-116 cells assessed as reduction in cell viability measured after 72 hrs by MTS assay; assay type: functional, cell-based; details: HCT-116, 72 h
MRC5 = assay: Cytotoxicity against human MRC5 cells assessed as reduction in cell viability measured after 72 hrs by MTS assay; assay type: cell-based; details: MRC5, 72 h
U2OS = assay: Cytotoxicity against human U2OS cells assessed as reduction in cell viability measured after 72 hrs by MTS assay; assay type: functional, cell-based
A549 = assay: Cytotoxicity against human A549 cells assessed as reduction in cell viability measured after 72 hrs by MTS assay; assay type: functional, cell-based; details: A549, 72 h
CEM-DNR = assay: Cytotoxicity against daunorubicin resistant human CEM-DNR cells assessed as reduction in cell viability measured after 72 hrs by MTS assay; assay type: functional, cell-based

SMILES | IC50 (CCRF-CEM) | IC50 (BJ) | IC50 [1] | IC50 (K562) | IC50 [2] | IC50 (HCT-116) | IC50 (MRC5) | IC50 (U2OS) | IC50 (A549) | IC50 (CEM-DNR)
C=C(/C=C/c1ccc(OC)cc1)[C@@H]1CC[C@]2(C(=O)O)CC[C@]3(C)[C@H](CC[C@@H]4[C@@]5(C)CC[C@H](O)C(C)(C)[C@@H]5CC[C@]43C)[C@@H]12 | 20.9 µM | > 50 µM | 48.9 µM | > 50 µM | 48.6 µM | 42.4 µM | > 50 µM | 48.6 µM | > 50 µM | > 50 µM
C=C(/C=C/c1cccc(F)c1)[C@@H]1CC[C@]2(C(=O)O)CC[C@]3(C)[C@H](CC[C@@H]4[C@@]5(C)CC[C@H](O)C(C)(C)[C@@H]5CC[C@]43C)[C@@H]12 | 11.7 µM | 41.5 µM | 21 µM | 21.6 µM | 21.9 µM | 23 µM | 32.1 µM | 27.7 µM | 28.7 µM | 23.1 µM
C=C(/C=C/c1cc(OC)cc(OC)c1)[C@@H]1CC[C@]2(C(=O)O)CC[C@]3(C)[C@H](CC[C@@H]4[C@@]5(C)CC[C@H](O)C(C)(C)[C@@H]5CC[C@]43C)[C@@H]12 | 10 µM | 47.6 µM | 20.8 µM | 22.2 µM | 16 µM | 17.3 µM | 29.2 µM | 22.3 µM | 19 µM | 13.7 µM
C=C(/C=C/c1ccccc1[N+](=O)[O-])[C@@H]1CC[C@]2(C(=O)O)CC[C@]3(C)[C@H](CC[C@@H]4[C@@]5(C)CC[C@H](O)C(C)(C)[C@@H]5CC[C@]43C)[C@@H]12 | 23.7 µM | > 50 µM | 39.3 µM | > 50 µM | 29.8 µM | 34.8 µM | > 50 µM | 33.1 µM | 45.2 µM | 30.6 µM
C=C(/C=C/c1ccccc1C)[C@@H]1CC[C@]2(C(=O)O)CC[C@]3(C)[C@H](CC[C@@H]4[C@@]5(C)CC[C@H](O)C(C)(C)[C@@H]5CC[C@]43C)[C@@H]12 | 19.1 µM | 33 µM | 25.9 µM | 28.1 µM | 25.9 µM | 29.7 µM | 31.5 µM | 28 µM | 26.8 µM | 22.8 µM
C=C(/C=C/c1ccccc1C(F)(F)F)[C@@H]1CC[C@]2(C(=O)O)CC[C@]3(C)[C@H](CC[C@@H]4[C@@]5(C)CC[C@H](O)C(C)(C)[C@@H]5CC[C@]43C)[C@@H]12 | 21.8 µM | > 50 µM | 36.1 µM | 48.7 µM | > 50 µM | 33 µM | > 50 µM | 29.6 µM | 37 µM | > 50 µM
C=C(/C=C/c1ccccc1Cl)[C@@H]1CC[C@]2(C(=O)O)CC[C@]3(C)[C@H](CC[C@@H]4[C@@]5(C)CC[C@H](O)C(C)(C)[C@@H]5CC[C@]43C)[C@@H]12 | 18.7 µM | 42.3 µM | 24.8 µM | 23.9 µM | 39.3 µM | 26.6 µM | 32.6 µM | 28.1 µM | 29.4 µM | 42.1 µM
C=C(/C=C/c1ccccc1)[C@@H]1CC[C@]2(C(=O)O)CC[C@]3(C)[C@H](CC[C@@H]4[C@@]5(C)CC[C@H](O)C(C)(C)[C@@H]5CC[C@]43C)[C@@H]12 | 6.5 µM | > 50 µM | 39.5 µM | 40 µM | 25.3 µM | 35.5 µM | > 50 µM | 24.2 µM | 41.8 µM | 30.2 µM
C=C(/C=C/c1ccccc1I)[C@@H]1CC[C@]2(C(=O)O)CC[C@]3(C)[C@H](CC[C@@H]4[C@@]5(C)CC[C@H](O)C(C)(C)[C@@H]5CC[C@]43C)[C@@H]12 | 20.6 µM | > 50 µM | 29.5 µM | 25.1 µM | > 50 µM | 29.6 µM | 29.5 µM | 28.5 µM | 29.7 µM | > 50 µM
